Drawing on US11691992B2 (Anacor Pharmaceuticals, Inc., priority 2017, dated 2023), this text covers IC50 and inhibition for seven compounds.

Where two headings read alike, the source gives them in different places.

Holding throughout (assay type): cell-based
For test [1], the system named is promastigote forms of L. major. Kind of test: Leishmania major promastigote growth inhibition assay (Alamar Blue). Particulars: promastigotes, 44 hours + 4 hours Alamar Blue, read-out: IC50: I Org. promastigote Growth L. major, 2 d. The text has this:
Example 108. Leishmania major Promastigote Growth Inhibition Assay
The promastigote assay is a microtiter plate drug sensitivity prescreen assay used to determine antileishmanial activity of candidate drugs against promastigote forms of L. major. (Shadow et al., PLOS Neglected Tropical Diseases, 2009, e311.) Alamar Blue, or resazurin, is a non-fluorescent indicator dye that is converted to bright red-fluorescent resorufin via the activity of mitochondrial reductases. As the activity of mitochondrial reductases is reduced in cells that are dead or dying, and the intensity of the fluorescence is relative to cell number, a test compound that kills or inhibits growth of a particular target cell, such as L. major, will result in a lower production of fluorescent signal. Pre-dosed microtiter drug plates for use in the promastigote drug prescreen assay were produced using sterile 384-well black optical bottom tissue culture plates (Nunc Cat #12-565-344). Candidate drugs were diluted in dimethyl sulfoxide in four 96-well plates to either 10,000 ng/ml or 1,000 ng/ml, and 4.25 μL of diluted drug was subsequently dispensed into each well of a 384-well plate. Duplicate 384 well plates were made at each test concentration (10,000 ng/mL and 1,000 ng/mL) and amphotericin B was used as a batch control. The Tecan EVO Freedom liquid handling system (Tecan US, Inc., Durham, N.C.) was used to produce all drug assay plates and conduct all pipetting operations for this assay. L. major parasites were cultured in Schneider's medium (Lonza Cat #04-351Q) supplemented with 20% heat inactivated FBS (Invitrogen Cat #16140-089). Promastigotes in early log growth phase were harvested from culture, counted, suspended at 1.32×10^5 cells/mF and 5,000 promastigotes were dispensed into each well of the 384 well plate in a volume of 38.8 μL. The 384 well plates were subsequently incubated at 28° C. for 44 hours. 8.4 μF of Alamar Blue (Promega, Cat #G8081) was added to each well, the plates were subsequently incubated at 28° C. and 5% CO2 for 4 hours and then examined for the relative fluorescence units (RFU) per well using the Tecan Genios Plus (Tecan US, Inc., Durham, N.C.) with excitation set at 560 nm and emission set at 590 nm. The relative fluorescence from each well was used to determine the percent growth inhibition of each candidate compound tested. Compounds with 50% or greater inhibition of growth were selected for further analysis to determine IC50 values.
(The colour change of resazurin is a common sign of viable cells or microbes.)

For test [2], the system named is L. infantum MHOM/MA(BE)/67 amastigotes in primary peritoneal mouse macrophages. Put plainly: Leishmania infantum intracellular amastigote assay in mouse macrophages. The following applies: Macrophage, 120 h. The protocol: Example 111. Leishmania infantum Intracellular Amastigote Assay in Mouse Macrophages
L. infantum MHOM/MA(BE)/67 amastigotes were collected from the spleen of an infected donor hamster and used to infect primary peritoneal mouse macrophages. (Kaiser, M., Maes, L., Tadoori, L. P., Spangenberg, T., Ioset, J.-R. J. Biomol. Screen. 2015 20(5), 634-35.) To determine in vitro antileishmanial activity, 3×10^4 macrophages were seeded in each well of a 96-well plate. Culture medium was RPMI-1640 supplemented with L-glutamine (20 mM), 16.5 mM sodium hydrogen carbonate, and 10% fetal calf serum (FCS). After 2 d of outgrowth, 5×10^5 amastigotes/well were added and incubated for 2 h at 37° C. Prediluted samples to be tested were subsequently added, and the plates were further incubated for 5 d at 37° C. and 5% CO2. Total parasite burdens in the well were microscopically assessed after Giemsa staining and expressed as a percentage of the total burden in the blank controls without compound. In treated wells with high amastigote burdens, an overall estimate of the total burden per well was made without discrimination between the number of infected macrophages and the number of amastigotes per infected cell. In treated wells with low burdens, exact counting was performed. The 50% inhibitory concentrations (IC50s) were then generated for each dose response test using GraphPad Prism (GraphPad Software Inc., San Diego, Calif.) using the nonlinear regression (sigmoidal dose-response/variable slope) equation.

For test [3], the system named is IL3000 T. congolense (drug sensitive) strain. Kind of test: In vitro Alamar Blue 72 h drug sensitivity assay for T. congolense. The protocol: Example 106. In Vitro Alamar Blue 72 h Drug Sensitivity Assay for T. congolense
Compounds were tested in vitro for chemotherapeutic potency against the IL3000 T. congolense (drug sensitive) strain, using the Alamar Blue assay with several modifications. Test compounds were prepared as 10 mg/mL DMSO stocks for each assay run. Compounds were assayed in at least three separate, independent test runs and an 11-point dilution curve was used to determine the IC50 values. Bloodstream form trypanosomes were supported in HMI media containing 20% bovine serum and were incubated with test compounds for 69 h at 34° C. in a humidified atmosphere containing 5% CO2. Thereafter, 10 μL of Resazurin dye (12.5 mg in 100 mL of phosphate buffered saline, Sigma-Aldrich, Buchs, Switzerland) were added for an additional 3 h. Plates were then read using a fluorescent plate reader (Spectramax, Gemini XS, Bucher Biotec, Basel, Switzerland) using an excitation wavelength of 536 nm and an emission wavelength of 588 nm. Data points were averaged to generate sigmoidal dose-response curves and IC50 values were determined using Softmax Pro 5.2 software.

Test [4] concerns bloodstream forms of T. b. rhodesiense STIB 900. Put plainly: T. brucei rhodesiense STIB 900 growth inhibition assay. Particulars: Trypanosoma brucei, 72 h. From the text: Example 110. T. brucei rhodesiense STIB 900 Growth Inhibition Assay
The parasite strain used in this assay was isolated in 1982 from a human patient in Tanzania and after several mouse passages cloned and adapted to axenic culture conditions, ((a) Baltz, T., D. Baltz, C. Giroud, and J. Crockett. EMBO Journal, 1985, 4:1273-1277. (b) Thuita, J. K., S. M. Karanja, T. Wenzler, R. E. Mdachi, J. M. Ngotho, J. M. Kagira, R. Tidwell, and R. Brun. Acta Tropica 2008, 108:6-10.) Minimum Essential Medium (50 μl) supplemented with 25 mM HEPES, 1 g/l additional glucose, 1% MEM non-essential amino acids (100×), 0.2 mM 2-mercaptoethanol, 1 mM Na-pyruvate and 15% heat inactivated horse serum was added to each well of a 96-well microtiter plate. Serial drug dilutions of seven 3-fold dilution steps covering a range from 90 to 0.123 μg/ml were prepared. Then 10^4 bloodstream forms of T. b. rhodesiense STIB 900 in 50 μl was added to each well and the plate incubated at 37° C. under a 5% CO2 atmosphere for 72 h. 10 μl Alamar Blue (resazurin, 12.5 mg in 100 ml double-distilled water) was then added to each well and incubation continued for a further 2-4 h, (Raz, B., M. Iten, Y. Grether-Buhler, R. Kaminsky, and R. Brun. Acta Trap 1997, 68:139-47.) Then the plates were read with a Spectramax Gemini XS microplate fluorometer (Molecular Devices Cooperation, Sunnyvale, Calif., USA) using an excitation wave length of 536 nm and an emission wave length of 588 nm. Data were analyzed using the microplate reader software Softmax Pro (Molecular Devices Cooperation, Sunnyvale, Calif., USA).

The mark [5] stands for this setting: amastigotes in primary peritoneal mouse macrophages, 5 d, Giemsa staining, read-out: Inhibition of Organism Growth in Leishmania infantum MHOM/MA/BE/67, 5 d.
[6] abbreviates: Trypanosoma congolense; read-out: inhibition of T. congolense IL-3000 growth at a concentration of 1.0 μM (classes D, E).
Where [7] appears, read: bloodstream forms, Alamar Blue, protocol of Example 110, read-out: IC50: I Org. Growth T. brucei rhodesiense STIB 900, 3 d.

Consider `CCn1nnc(C(=O)Nc2ccc3c(c2)B(O)OC3)c1C` [Example 46, 1-ethyl-N-(1-hydroxy-1,3-dihydrobenzo[c][1,2]oxaborol-6-yl)-5-methyl-1H-1,2,3-triazole-4-carboxamide], for which, in test [1], the IC50 lay within 2510 to 20000 nM.
Still for that read-out and setting: the same measure for `O=C(Nc1ccc2c(c1)B(O)OC2)c1nnn(CC2CCC2)c1C(F)(F)F` [Example 47, 1-(cyclobutylmethyl)-N-(1-hydroxy-1,3-dihydrobenzo[c][1,2]oxaborol-6-yl)-5-(trifluoromethyl)-1H-1,2,3-triazole-4-carboxamide]: below 600 nM.
As for `COc1cccc(-c2nc(C(=O)Nc3ccc4c(c3)B(O)OC4)nn2C)n1` [Example 75, N-(1-hydroxy-1,3-dihydrobenzo[c][1,2]oxaborol-6-yl)-5-(6-methoxypyridin-2-yl)-1-methyl-1H-1,2,4-triazole-3-carboxamide], the IC50 was below 3 µM in test [2] (setting [5]) and below 0.1 µM in test [4] (setting [7]). In addition, the inhibition at 1 µM in test [3] (setting [6]) was above 75%.
On the same counts, the results for `Cn1nc(C(=O)Nc2ccc3c(c2)B(O)OC3)nc1-c1ncccc1Cl` [Example 76, 5-(3-Chloropyridin-2-yl)-N-(1-hydroxy-1,3-dihydrobenzo[c][1,2]oxaborol-6-yl)-1-methyl-1H-1,2,4-triazole-3-carboxamide] are 3 to 19.9 µM, 0.1 to 0.3 µM and above 75%.
On the same counts, the results for `Cn1nc(C(=O)Nc2ccc3c(c2)B(O)OC3)nc1-c1ccc(Cl)cn1` [Example 77, 5-(5-Chloropyridin-2-yl)-N-(1-hydroxy-1,3-dihydrobenzo[c][1,2]oxaborol-6-yl)-1-methyl-1H-1,2,4-triazole-3-carboxamide] are 3 to 19.9 µM, 0.1 to 0.3 µM and above 75%.
As to `Cn1nc(-c2cccnc2)nc1C(=O)Nc1ccc2c(c1)B(O)OC2` [Example 78b, N-(1-hydroxy-1,3-dihydrobenzo[c][1,2]oxaborol-6-yl)-1-methyl-3-(pyridin-3-yl)-1H-1,2,4-triazole-5-carboxamide], the IC50 lay in the range of 20 to 100 µM in test [2] (read-out: Inhibition of Organism Growth in Leishmania infantum MHOM/MA/BE/67, 5 d [uM]) and 0.31 to 10 µM in test [4] (read-out: IC50: I Org. Growth T. brucei rhodesiense STIB 900, 3 d [uM]). For the same compound, in test [3] (Trypanosoma congolense, read-out: inhibition of T. congolense IL-3000 growth at a concentration of 1.0 μM (classes D, E)), the inhibition at 1 µM is above 75%.
Regarding `Cn1nc(C(=O)Nc2ccc3c(c2)B(O)OC3(C)C)nc1-c1ccccn1` [Example 79], the IC50 in test [2] (setting [5]) lay in the range of 20 to 100 µM; in test [4] (RHODESIENSE|STIB900, bloodstream forms, Alamar Blue, protocol of Example 110, read-out: IC50: I Org. Growth T. brucei rhodesiense STIB 900, 3 d) it was 0.31 to 10 µM. Further, the inhibition at 1 µM in test [3] (setting [6]) is above 75%.
